In PubChem BioAssay (NCI):
“And” between values parts separate entries of the source, which are not always exact repeats. Identical values can stand only once.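 Each compound was tested at five concentrations against cells in 96-well plates for 48 hours. GI50 marks 50% less growth. The concentration for full growth arrest is given as TGI.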

Legend:
Assay in all cases: NCI anticancer screen, dose series, 48 h
SK-MEL-28 melanoma = tested on: SK-MEL-28 melanoma
SF-268 CNS = tested on: SF-268 CNS
A549 NSCLC = tested on: A549 NSCLC
SF-539 CNS = tested on: SF-539 CNS
COLO 205 colon = tested on: COLO 205 colon
HCT-116 colon = tested on: HCT-116 colon
MCF7 breast = tested on: MCF7 breast
NCI/ADR-RES ovarian = tested on: NCI/ADR-RES ovarian
U251 CNS = tested on: U251 CNS
HL-60(TB) leukemia = tested on: HL-60(TB) leukemia
K-562 leukemia = tested on: K-562 leukemia

| SMILES | TGI (SK-MEL-28 melanoma) | TGI (SF-268 CNS) | TGI (A549 NSCLC) | GI50 (SF-539 CNS) | TGI (SF-539 CNS) | TGI (COLO 205 colon) | TGI (HCT-116 colon) | TGI (MCF7 breast) | TGI (NCI/ADR-RES ovarian) | TGI (U251 CNS) | TGI (HL-60(TB) leukemia) | TGI (K-562 leukemia) |
| --- | --- | --- | --- | --- | --- | --- | --- | --- | --- | --- | --- | --- |
| Nc1nc(N)c2ncn(-c3ccccc3)c2n1 | > 100 µM | > 100 µM | > 100 µM | > 100 µM and 49.2 µM | > 100 µM | > 100 µM | > 100 µM | > 100 µM | > 100 µM | > 100 µM |  |  |
| O=C(Cc1ccccc1)N/N=C(/c1nc2ccc([N+](=O)[O-])cc2[nH]c1=O)C(O)c1ccc(C(O)/C(=N/NC(=O)Cc2ccccc2)c2nc3ccc([N+](=O)[O-])cc3[nH]c2=O)cc1 (configuration not stated) | > 100 µM | > 100 µM | > 100 µM |  | > 100 µM | > 100 µM | > 100 µM |  |  |  | > 100 µM | > 100 µM |
| CCCCCCCc1cscc1-c1cscc1Br | > 100 µM | > 100 µM | > 100 µM |  | > 100 µM | 35.6 µM | > 100 µM | > 100 µM | > 100 µM | > 100 µM |  | > 100 µM |
| COCC12CCC(OC)C34C5CC6(O)C(OC)C=C(C5C6OC(=O)c5ccccc5)C(C(OC)C13)C4N(C)C2 (configuration not stated) | > 100 µM | > 100 µM | > 100 µM |  | > 100 µM | > 100 µM | > 100 µM | > 100 µM | > 100 µM | > 100 µM | > 100 µM |  |
| CO[C@H]1O[C@@H]2OC3(C)CCC4[C@H](C)CCC([C@H]1C)[C@]42OO3 (some centres not stated) | > 100 µM | > 100 µM | > 100 µM |  | > 100 µM | > 100 µM | > 100 µM |  | > 100 µM | > 100 µM | 46.7 µM | > 100 µM |
| CCCCCC#COC1CC(C)CC[C@@H]1C(C)C (some centres not stated) | > 100 µM | > 100 µM | > 100 µM |  | > 100 µM | > 100 µM | > 100 µM |  |  | > 100 µM | 55 µM | > 100 µM |
| O=C(/C=C/c1ccc(O)c(O)c1)NC(COC(=O)/C=C/c1ccc(O)c(O)c1)C(=O)O (configuration not stated) | > 100 µM | > 100 µM | > 100 µM |  | > 100 µM | > 100 µM | > 100 µM | > 100 µM | > 100 µM | > 100 µM |  | > 100 µM |
| Cc1ccc(SCC(CF)OC(C)n2cnc3c(Cl)nc(N)nc32)cc1 (configuration not stated) | > 100 µM | > 100 µM | > 100 µM |  | > 100 µM | > 100 µM | > 100 µM | > 100 µM | > 100 µM | > 100 µM | 86.3 µM |  |
| CC(=O)O[C@H]1CC[C@@]2(C)C(=CC[C@@H]3[C@@H]2CC[C@](C)(c2nnc(C)o2)[C@H]3CC#N)C1 |  | > 100 µM | > 100 µM |  | > 100 µM | > 100 µM | > 100 µM | > 100 µM | > 100 µM | > 100 µM | > 100 µM | > 100 µM |
| N#Cc1ccc(C(C2C(=O)NC(=O)NC2=O)C2C(=O)NC(=O)NC2=O)cc1 | > 100 µM | > 100 µM | > 100 µM |  | > 100 µM | > 100 µM | > 100 µM |  |  | > 100 µM | > 100 µM | > 100 µM |
| CN(C)CCN(C)C(=O)C1CCCN1C(=O)OCc1ccccc1 (configuration not stated) | > 100 µM | > 100 µM | > 100 µM |  | > 100 µM | > 100 µM | > 100 µM |  |  | > 100 µM | > 100 µM | > 100 µM |
| CCCCCCCCCC/C=C/C=O | > 100 µM | > 100 µM | > 100 µM |  | > 100 µM | > 100 µM | > 100 µM |  |  | > 100 µM | > 100 µM | > 100 µM |
| CCCCOC(=O)NC(Nc1ccc(S(=O)(=O)Nc2ncccn2)cc1)(C(F)(F)F)C(F)(F)F | > 100 µM | > 100 µM | > 100 µM |  | > 100 µM | > 100 µM | > 100 µM |  | > 100 µM |  | > 100 µM | > 100 µM |
| CCOC(=O)/C(=C/c1ccccc1Br)P(=O)(OCC)OCC | 4.66 µM | 10.5 µM | 10.7 µM |  | 6.22 µM |  | 10.1 µM |  |  | 3.18 µM | 1.94 µM | 2 µM |
| Cc1cc(C)c(S(=O)(=O)N(CCCN)OCCON(CCCN)S(=O)(=O)c2c(C)cc(C)cc2C)c(C)c1 | 31 µM | 5.37 µM | > 100 µM |  |  | > 100 µM | 5.1 µM | > 100 µM | 46.6 µM | > 100 µM | > 21.9 µM | > 100 µM |
| Fc1cccc(C2SCc3nc4cc5ccccc5cc4n32)c1 (configuration not stated) | > 100 µM | > 100 µM | > 100 µM |  | > 100 µM | > 100 µM | > 100 µM | > 100 µM | > 100 µM | > 100 µM |  | > 100 µM |
| CC(CNC(=O)c1ccccc1)(CNC(=O)c1ccccc1)[N+](=O)[O-] |  | > 100 µM | > 100 µM |  | > 100 µM | > 100 µM | > 100 µM | > 100 µM | > 100 µM | > 100 µM | > 100 µM | > 100 µM |
| C=CC(=O)NCNC(=O)C=C | > 100 µM | > 100 µM | > 100 µM |  | > 100 µM | > 100 µM | > 100 µM |  |  | > 100 µM | > 100 µM | > 100 µM |
| C(=N\NC1=NCCN1)/c1cccc2cc3ccncc3nc12 | 22.8 µM | 14.2 µM | 20.2 µM |  | 21.2 µM | 15.5 µM | 3.19 µM | 14.5 µM | 25.2 µM | 4 µM | 2.76 µM |  |
| CC(=O)Oc1ccc(Nn2c3ccccc3c3ccccc32)c(C)c1 | > 100 µM | > 100 µM | > 100 µM |  |  | > 100 µM | > 100 µM |  |  | > 100 µM | 63.2 µM | > 100 µM |
| CCOC(=O)Nc1n[nH]nc1Cl | > 100 µM | > 100 µM | > 100 µM |  | > 100 µM | > 100 µM | > 100 µM | > 100 µM | > 100 µM | > 100 µM |  | > 100 µM |
| O=C1C=CC(=O)c2cc(Sc3ccccc3)c(=O)c(Sc3ccccc3)cc21 | > 100 µM | > 100 µM | > 100 µM |  | > 100 µM | > 100 µM | > 100 µM |  |  | > 100 µM | 27.7 µM | 61.9 µM |
